Measurements as given in the supplement of paper PMC10307832.

What was measured:
Assay in all cases: relative viability (nuclei count vs DMSO), 5 days (fraction); higher = more cells survive
ALW-II-49-7 + Pictilisib = compound: Cc1ccc(C(=O)Nc2cccc(C(F)(F)F)c2)cc1Nc1cncc(C(N)=O)c1 [ALW-II-49-7] + CS(=O)(=O)N1CCN(Cc2cc3nc(-c4cccc5[nH]ncc45)nc(N4CCOCC4)c3s2)CC1 [Pictilisib] (partner 1 µM)
How it was run: (§1)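 Nuclei were stained with Hoechst during a one-step fixation (final 0.05% Triton X-100, 1% formaldehyde, 1 ug/ml Hoechst) carried out 5 days after dosing, then counted on 4× images. The cells, lung cancer lines in 1536-well plates, had been dosed by pin tool the day after seeding with one drug alone or a fixed anchor-drug dose plus five library-drug doses (not always all listed) in √10 steps. Relative viability is the nuclei count in treated wells divided by that in vehicle wells, and each value is the median of duplicate plates.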

XMD13-2 + Pemetrexed = compound: C1CC1C(=O)NC2=NNC3=C2C=CC(=C3)C4=CC(=CC=C4)C(=O)NC5CC5 [XMD13-2] + Nc1nc2[nH]cc(CCc3ccc(C(=O)N[C@@H](CCC(=O)O)C(=O)O)cc3)c2c(=O)[nH]1 [Pemetrexed] (partner 0.2 µM)
How it was run: as §1

XMD13-2 + Bortezomib = compound: C1CC1C(=O)NC2=NNC3=C2C=CC(=C3)C4=CC(=CC=C4)C(=O)NC5CC5 [XMD13-2] + CC(C)C[C@H](NC(=O)[C@H](Cc1ccccc1)NC(=O)c1cnccn1)B(O)O [Bortezomib] (partner 0.002 µM)
How it was run: as §1

XMD13-2 + Linsitinib = compound: C1CC1C(=O)NC2=NNC3=C2C=CC(=C3)C4=CC(=CC=C4)C(=O)NC5CC5 [XMD13-2] + C[C@]1(O)C[C@@H](c2nc(-c3ccc4ccc(-c5ccccc5)nc4c3)c3c(N)nccn32)C1 [Linsitinib] (partner 1 µM)
How it was run: as §1

Row | Cell Line | relative viability (ALW-II-49-7 + Pictilisib; first compound 0.08 µM) | relative viability (ALW-II-49-7 + Pictilisib; first compound 0.253 µM) | relative viability (ALW-II-49-7 + Pictilisib; first compound 0.8 µM) | relative viability (ALW-II-49-7 + Pictilisib; first compound 2.53 µM) | relative viability (ALW-II-49-7 + Pictilisib; first compound 8 µM) | relative viability (XMD13-2 + Pemetrexed; first compound 0.05 µM) | relative viability (XMD13-2 + Pemetrexed; first compound 0.1581 µM) | relative viability (XMD13-2 + Pemetrexed; first compound 0.5 µM) | relative viability (XMD13-2 + Pemetrexed; first compound 1.581 µM) | relative viability (XMD13-2 + Pemetrexed; first compound 5 µM) | relative viability (XMD13-2 + Bortezomib; first compound 0.05 µM) | relative viability (XMD13-2 + Bortezomib; first compound 0.1581 µM) | relative viability (XMD13-2 + Bortezomib; first compound 0.5 µM) | relative viability (XMD13-2 + Bortezomib; first compound 5 µM) | relative viability (XMD13-2 + Linsitinib; first compound 0.05 µM) | relative viability (XMD13-2 + Linsitinib; first compound 0.1581 µM) | relative viability (XMD13-2 + Linsitinib; first compound 0.5 µM) | relative viability (XMD13-2 + Linsitinib; first compound 1.581 µM) | relative viability (XMD13-2 + Linsitinib; first compound 5 µM) | relative viability (XMD13-2 + Bortezomib; first compound 1.581 µM)
1 | ChaGo-K-1 | 0.661 | 1.04 | 0.818 | 1.19 | 0.442 | 0.255 | 0.267 | 0.259 | 0.253 | 0.264 | 1.09 | 1.02 | 1.02 | 0.911 | – | – | – | – | – | –
2 | EBC-1 | 0.315 | 0.316 | – | 0.242 | 0.244 | – | – | – | – | – | 0.61 | 0.523 | 0.552 | 0.299 | 0.889 | 0.966 | 1.08 | 0.874 | 0.766 | 0.531
3 | EKVX | 0.42 | 0.475 | 0.438 | 0.398 | 0.499 | 0.457 | 0.324 | 0.432 | – | 0.428 | 1.23 | 1.03 | 1.06 | 1.09 | 1.16 | 0.911 | 0.992 | 0.871 | 1.05 | 1.1
4 | EMC-BAC-2 | 0.507 | 0.59 | 0.567 | 0.556 | 0.46 | 0.42 | 0.451 | 0.431 | 0.457 | 0.494 | 1.17 | 1.04 | 1.12 | 0.923 | 0.912 | 0.82 | 0.841 | 0.848 | 0.689 | 1.07
5 | EPLC-272H | 0.258 | 0.359 | 0.328 | 0.37 | 0.29 | 0.345 | 0.31 | 0.247 | 0.254 | 0.168 | 0.747 | 0.886 | 0.855 | 0.871 | 1.21 | 1.08 | 1.25 | 1.06 | 0.284 | 0.856
6 | H3255 | 0.505 | 0.43 | 0.48 | 0.335 | 0.418 | 0.618 | 0.546 | 0.579 | 0.611 | 0.625 | 1 | 0.75 | 0.817 | 0.764 | 1.12 | 1 | 0.946 | 0.97 | 0.94 | 0.575
7 | HARA | 0.416 | 0.386 | 0.431 | 0.483 | 0.497 | 0.224 | 0.273 | 0.269 | 0.208 | 0.323 | 1.31 | 1.11 | 0.671 | 1.17 | 0.934 | 0.931 | 0.944 | 0.972 | 1.07 | 1.17
8 | HCC-15 | 0.849 | 0.791 | 0.705 | 0.805 | 0.741 | 0.237 | 0.204 | 0.218 | 0.224 | 0.214 | 1.12 | 0.994 | 1.11 | 1.05 | 0.936 | 0.869 | 0.903 | 0.947 | 0.599 | 0.981
9 | HCC-44 | 0.513 | 0.693 | 0.638 | 0.535 | 0.646 | 0.573 | 0.536 | 0.67 | 0.727 | 0.631 | 0.899 | 0.92 | 0.897 | 0.966 | 0.683 | 0.694 | 0.697 | 0.704 | 0.773 | 0.804
